Consider 21 molecules from ChEMBL document CHEMBL4004875, “Synthesis of bulky-tailed sulfonamides incorporating pyrido[2,3-d][1,2,4]triazolo[4,3-a]pyrimidin-1(5H)-yl) moieties and evaluation of their carbonic anhydrases I, II, IV and IX inhibitory effects” (Bioorg Med Chem, 2017).

pKi: −log10 of the molar value. Calls of active or inactive are those of the source. The calls are words filed in the database; no cut-off is given here.

Experiment [1] deals with Carbonic anhydrase 9 (Homo sapiens, UniProt Q16790).
Description: Inhibition of recombinant human tumor-associated carbonic anhydrase 9 assessed as inhibition of CO2 hydration preincubated for 15 mins prior to testing by phenol red based stopped-flow CO2 hydration assay
Experiment [2] addresses T1, Carbonic anhydrase 4 (Homo sapiens, UniProt P22748). As to the kind of experiment: Inhibition of recombinant human membrane-associated carbonic anhydrase 4 assessed as inhibition of CO2 hydration preincubated for 15 mins prior to testing by phenol red based stopped-flow CO2 hydration assay.
For experiment [3], the target named is Carbonic anhydrase 2 (Homo sapiens, UniProt P00918). As to the kind of experiment: Inhibition of recombinant human carbonic anhydrase 2 assessed as inhibition of CO2 hydration preincubated for 15 mins prior to testing by phenol red based stopped-flow CO2 hydration assay.
The target of experiment [4] is T2, Carbonic anhydrase 1 (Homo sapiens, UniProt P00915). Description: Inhibition of recombinant human cytosolic carbonic anhydrase 1 assessed as inhibition of CO2 hydration preincubated for 15 mins prior to testing by phenol red based stopped-flow CO2 hydration assay.
Target sequence in this assay (P00915 whole entry): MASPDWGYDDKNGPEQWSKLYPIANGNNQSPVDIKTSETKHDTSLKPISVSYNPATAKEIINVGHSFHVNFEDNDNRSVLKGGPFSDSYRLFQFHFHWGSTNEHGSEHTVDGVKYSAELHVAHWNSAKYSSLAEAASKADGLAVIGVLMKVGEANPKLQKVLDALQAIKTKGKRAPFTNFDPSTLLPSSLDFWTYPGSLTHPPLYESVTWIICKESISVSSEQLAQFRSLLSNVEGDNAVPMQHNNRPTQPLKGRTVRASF
Experiment [5] addresses T2, Carbonic anhydrase 1. Description: Inhibition of recombinant human cytosolic carbonic anhydrase 1 assessed as inhibition of CO2 hydration up to 100 uM preincubated for 15 mins prior to testing by phenol red based stopped-flow CO2 hydration assay.
Target sequence in this assay (P00915 2-261 limits assumed): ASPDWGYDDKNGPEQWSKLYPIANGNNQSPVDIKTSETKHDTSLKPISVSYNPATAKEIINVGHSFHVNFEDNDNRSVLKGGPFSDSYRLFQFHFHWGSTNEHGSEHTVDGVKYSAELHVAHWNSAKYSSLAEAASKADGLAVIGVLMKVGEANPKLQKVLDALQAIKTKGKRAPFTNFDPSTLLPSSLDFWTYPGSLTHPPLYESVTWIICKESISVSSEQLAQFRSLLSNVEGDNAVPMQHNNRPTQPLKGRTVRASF
Experiment [6] concerns the target T1, Carbonic anhydrase 4. Description: Inhibition of recombinant human membrane-associated carbonic anhydrase 4 assessed as inhibition of CO2 hydration up to 100 uM preincubated for 15 mins prior to testing by phenol red based stopped-flow CO2 hydration assay.

T1 sequence (P22748 whole entry): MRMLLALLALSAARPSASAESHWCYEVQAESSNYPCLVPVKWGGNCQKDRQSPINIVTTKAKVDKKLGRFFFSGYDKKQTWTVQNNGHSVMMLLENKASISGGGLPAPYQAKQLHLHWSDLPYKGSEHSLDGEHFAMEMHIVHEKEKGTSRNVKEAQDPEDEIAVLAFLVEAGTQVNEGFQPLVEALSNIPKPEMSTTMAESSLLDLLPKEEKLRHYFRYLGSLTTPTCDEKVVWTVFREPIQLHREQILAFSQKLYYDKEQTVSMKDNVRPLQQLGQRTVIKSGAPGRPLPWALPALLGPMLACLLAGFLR

One may read the pKi as the Ki on a negative log10 scale, so that one unit is a factor of ten. In experiment [1], `CC(=O)c1nn(-c2ccc(S(N)(=O)=O)cc2)c2nc3nc(-c4ccc(Cl)cc4)cc(-c4ccccc4)c3c(=O)n12` showed a pKi of 6.74.
Consider `CC(=O)c1nn(-c2ccc(S(N)(=O)=O)cc2)c2nc3nc(-c4ccc(Cl)cc4)cc(-c4ccc([N+](=O)[O-])cc4)c3c(=O)n12`, for which the negative logarithm of the Ki (pKi) in experiment [1] was 6.48.
Same read-out and setting: the value for `CC(=O)c1nn(-c2ccc(S(N)(=O)=O)cc2)c2nc3nc(-c4cccs4)cc(-c4ccc(F)cc4)c3c(=O)n12` was 6.72; that for `CCOC(=O)c1nn(-c2ccc(S(N)(=O)=O)cc2)c2nc3nc(-c4ccc(Cl)cc4)cc(-c4ccc([N+](=O)[O-])cc4)c3c(=O)n12` was 5.61.
In turn, `CCOC(=O)c1nn(-c2ccc(S(N)(=O)=O)cc2)c2nc3nc(-c4cccs4)cc(-c4ccc(OC)cc4)c3c(=O)n12` showed a negative-log Ki (pKi) in experiment [1] of 6.42.
As to `CC(=O)c1nn(-c2ccc(S(N)(=O)=O)cc2)c2nc3nc(-c4cccs4)cc(-c4ccccc4)c3c(=O)n12`, the pKi in experiment [2] is 5.32; in experiment [3], 6.14; in experiment [4], 5.17; in experiment [1], 5.95.
`CC(=O)c1nn(-c2ccc(S(N)(=O)=O)cc2)c2nc3nc(-c4cccs4)cc(-c4ccc([N+](=O)[O-])cc4)c3c(=O)n12` had a negative logarithm of the Ki (pKi) in experiment [1] of 6.80.
Molecule `CC(=O)c1nn(-c2ccc(S(N)(=O)=O)cc2)c2nc3nc(-c4ccc(Cl)cc4)cc(-c4ccc(Cl)cc4)c3c(=O)n12` showed a pKi in experiment [1] of 6.46.
For `CC(=O)c1nn(-c2ccc(S(N)(=O)=O)cc2)c2nc3nc(-c4cccs4)cc(-c4ccc(Cl)cc4)c3c(=O)n12`, the negative-log Ki (pKi) in experiment [1] is 6.00. For the same molecule, the inhibition entry in experiment [5] was “inactive”.
In turn, `CCOC(=O)c1nn(-c2ccc(S(N)(=O)=O)cc2)c2nc3nc(-c4cccs4)cc(-c4ccccc4)c3c(=O)n12` had a pKi in experiment [1] of 5.72. Also, the inhibition entry in experiment [6] was “inactive”.
Molecule `COc1ccc(-c2cc(-c3ccc(Cl)cc3)nc3nc4n(-c5ccc(S(N)(=O)=O)cc5)nc(C(C)=O)n4c(=O)c23)cc1` showed a pKi in experiment [1] of 6.48.
With `CCOC(=O)c1nn(-c2ccc(S(N)(=O)=O)cc2)c2nc3nc(-c4ccc(Cl)cc4)cc(-c4ccccc4)c3c(=O)n12`, the pKi in experiment [1] is 5.49. Further, the inhibition entry in experiment [5] was “inactive”.
Turning to `CCOC(=O)c1nn(-c2ccc(S(N)(=O)=O)cc2)c2nc3nc(-c4ccc(Cl)cc4)cc(-c4ccc(Cl)cc4)c3c(=O)n12`, the pKi in experiment [1] is 5.84.
On to `CCOC(=O)c1nn(-c2ccc(S(N)(=O)=O)cc2)c2nc3nc(-c4cccs4)cc(-c4ccc([N+](=O)[O-])cc4)c3c(=O)n12`, for which the negative logarithm of the Ki (pKi) in experiment [1] is 5.96.
In turn, `CCOC(=O)c1nn(-c2ccc(S(N)(=O)=O)cc2)c2nc3nc(-c4ccc(Cl)cc4)cc(-c4ccc(OC)cc4)c3c(=O)n12` showed a negative-log Ki (pKi) in experiment [1] of 5.84. Moreover, the inhibition result in experiment [6] is “inactive”.
As to `COc1ccc(-c2cc(-c3cccs3)nc3nc4n(-c5ccc(S(N)(=O)=O)cc5)nc(C(C)=O)n4c(=O)c23)cc1`, the negative-log Ki (pKi) in experiment [1] is 6.38.
In experiment [1], `CCOC(=O)c1nn(-c2ccc(S(N)(=O)=O)cc2)c2nc3nc(-c4cccs4)cc(-c4ccc(F)cc4)c3c(=O)n12` showed a negative-log Ki (pKi) of 5.79. Also, in experiment [5], the inhibition entry is “inactive”.
`CCOC(=O)c1nn(-c2ccc(S(N)(=O)=O)cc2)c2nc3nc(-c4ccc(Cl)cc4)cc(-c4ccc(F)cc4)c3c(=O)n12`: in experiment [1], the pKi is 5.49.
On the same count and under the same terms, as for `CC(=O)c1nn(-c2ccc(S(N)(=O)=O)cc2)c2nc3nc(-c4ccc(Cl)cc4)cc(-c4ccc(F)cc4)c3c(=O)n12`, the figure is 6.60.
Take `Cc1ccc(-c2cc(C(F)(F)F)nn2-c2ccc(S(N)(=O)=O)cc2)cc1` [CELECOXIB]: the pKi in experiment [2] is 6.54; in experiment [1], 7.70.
The molecule `CCOC(=O)c1nn(-c2ccc(S(N)(=O)=O)cc2)c2nc3nc(-c4cccs4)cc(-c4ccc(Cl)cc4)c3c(=O)n12` gave a pKi in experiment [1] of 6.41.
